Measurements from patent publication US20220249352A1, “MICROPARTICLES BASED ON ESTER DERIVATIVES OF HYALURONAN, METHOD OF PRODUCTION, COMPOSITION COMPRISING THEREOF AND USE THEREOF” (CONTIPRO A.S., priority 2019, published 2022).

Tests used:
[1] = tested on: SQLE mRNA expression in HaCaT keratinocyte cells; assay: Expression of cholesterol synthesis gene SQLE (QRT-PCR); assay type: cell-based; settings: HaCaT keratinocytes, 48 hours
Experimental: (§1) This example illustrates the expressional changes in keratinocyte cholesterol metabolism pathway components (upon treatment with HA−ATRA (prepared as described in examples 5, 9), unbound ATRA and HA (HA+ATRA), hyaluronan (HA), untreated control (CTRL), retinoic isomers (13-cis-RET) and 9 cis (9-cis-RET). The HaCaT keratinocyte cells were individually treated with the compounds described below for 48 hours and sampled in the indicated times. The mRNA expression of HMGCS1, SQLE and DHRS3 was analyzed with quantitative real-time PCR (QRT-PCR) using a StepOnePlus (ThermoFisher, Waltham, Mass., USA). Briefly, 500 ng of total RNA was transcribed to cDNA (High-Capacity cDNA Reverse Transcription Kit, ThermoFisher, Waltham, Mass., USA). Approximately 5 ng of cDNA was used for QRT-PCR reaction in 10 μl volume. The TaqMan assays (all from ThermoFisher, Waltham, Mass., USA) used were: HMGCS1 (Hs00940429_m1), SQLE (Hs01123768_m1), DHRS3 (Hs01044021_m1) and RPL13A (Hs04194366_g1). Duplicate reaction tubes were set up for each sample. All expression values for HMGCS1, SQLE and DHRS3 were related to the amount of the housekeeping gene RPL13A to correct for variations in RNA levels and efficiency in cDNA synthesis. Regarding the analyzed enzyme involved in cholesterol synthesis, only treatment with microparticles of HA−ATRA increased the expression of HMGCS1 and SQLE, all samples containing retinoids increased expression of positive control DHRS3 (FIG. 10). However, microparticles HA−ATRA can upregulate cholesterol synthesis gene HMGCS1 like when the molarity of the retinoic acid bound to HA is the same in both treatments, this is shown in FIG. 11.

[2] = tested on: HMGCS1 mRNA expression in HaCaT keratinocyte cells; assay: Expression of cholesterol synthesis gene HMGCS1 (QRT-PCR); assay type: cell-based; settings: HaCaT keratinocytes, 48 hours
Experimental: as §1

[3] = Thermogravimetric analysis (TGA), thermal decomposition; assay type: physicochemical
Experimental: In this disclosure, it is further reported that the amount of active ATRA is conserved after four weeks of storage at 40° C., in the absence of any further toxic antioxidant, which is an advantage to the previously reported art such as US 20190015366 A1 and WO2015092602A1, that require the presence of the toxic benzoyl peroxide, which have been reported as an inductor of photo-carcinogenesis in hairless mice after solar radiation. Similar art was reported in US20100166852A1. In the present embodiments, the microparticles made of HA−ATRA were stored for prolonged times in the presence of air the microparticles are stable, while the obtained powders degraded faster (FIGS. 2 and 4). […] In this disclosure, the thermal decomposition of the HA−ATRA microparticles was compared with the native polysaccharide and pure retinoic acid using thermogravimetric analysis (TGA) according to de Mendonça CMS, de Barros Lima IP, Aragão CFS, Gomes APB in Thermal compatibility between hydroquinone and retinoic acid in pharmaceutical formulations. Journal of Thermal Analysis and calorimetry 2014; 115:2277-85.
In brief, the TGA (Thermogravimetric analyses) was performed on the microparticles on a […]. About 2 mg of powder was accurately weighed samples were loaded into aluminum pans and analyzed. […]

SMILES: CC1=C(/C=C/C(C)=C/C=C/C(C)=C\C(=O)O)C(C)(C)CCC1 [13-cis retinoic acid]
- expression of SQLE [1]: neither unbound 9-cis retinoic nor 13-cis retinoic acid were able to upregulate
- expression of HMGCS1 [2]: neither unbound 9-cis retinoic nor 13-cis retinoic acid were able to upregulate

SMILES: CC1=C(/C=C/C(C)=C\C=C\C(C)=C\C(=O)O)C(C)(C)CCC1 [9-cis retinoic, 9-cis retinoic acid]
- expression of SQLE [1]: neither unbound 9-cis retinoic nor 13-cis retinoic acid were able to upregulate
- expression of HMGCS1 [2]: neither unbound 9-cis retinoic nor 13-cis retinoic acid were able to upregulate

SMILES: CC(C=CC1=C(C)CCCC1(C)C)=CC=CC(C)=CC(=O)O [ATRA, 3,7-dimethyl-9-(2,6,6-trimethyl-1-cyclohexene-1-yl)-2,4,6,8-nonatetraenoic acid]
- expression of SQLE [1]: did not induce
- expression of HMGCS1 [2]: did not induce
- temperature range of decomposition (three stages, TG curve) [3]: 185−609 °C
